The values that follow are results of earlier work, collected in US11583508B2, “Use of mitoxantrone liposome for treating non-Hodgkin's lymphoma” (CSPC ZHONGQI PHARMACEUTICAL TECHNOLOGY (SHIJIAZHUANG) CO., …, priority 2018, dated 2023).

The data set deals with relapsed/refractory PTCL (RR-PTCL). The conditions noted are these: monotherapy, second-line.

As to `O=C(/C=C/c1cccc(S(=O)(=O)Nc2ccccc2)c1)NO` [Belinostat], the “Primary endpoint: (ORR, %)” value is on record as 25.8%. As to `C#CCC(Cc1cnc2nc(N)nc(N)c2n1)c1ccc(C(=O)N[C@@H](CCC(=O)O)C(=O)O)cc1` (some centres unmarked) [Pralatrexate], the “Primary endpoint: (ORR, %)” value is reported as 27%.
